Test results: patent EP4700095A1, “INK COMPOSITION FOR INK-JET PRINTING” (Sakata INX Corporation, priority 2023, dated 2024)

Assay: SP value (solubility parameter) calculated by formula 1
Conditions: 25°C (298 K), formula {(ΔH - RT)/(M/D)}^1/2

Compound | SP value
OCC(O)CO [Glycerin, glycerin] | 14.9 (cal/cm^3)^1/2
CC(O)CO (stereo not drawn) [Propylene glycol, 1,2-propanediol] | 12.6 (cal/cm^3)^1/2
CC(O)COC(C)COC(C)CO (stereo not drawn) [Tripropylene glycol] | 11.3 (cal/cm^3)^1/2
